Experimental data as given in the supplement of paper PMC10331698.
± gives the standard deviation of the averaged measurements.

Columns and labels:
Experiment in all cases: level (log10 ratio to DMSO vehicle control); higher = higher biomarker level / cell amount than vehicle control
Conditions in all cases: in DMSO
[1] = compound: C=C(C)C(=O)OCC(F)(F)C(F)(F)C(F)(F)C(F)(F)C(F)(F)C(F)(F)C(F)(F)F
Procedure: (§1)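 BioMAP Diversity Plus panel of 12 human primary cell co-culture systems (3C, 4H, LPS, SAg, BT, BF4T, BE3C, CASM3C, HDF3CGF, KF3CT, MyoF, Mphg). Compounds were added 1 h before stimulation and left for 24 h (MyoF 48 h; BT 72 h for soluble read-outs or 6 d for IgG). Biomarkers were read by ELISA, cytotoxicity by SRB, PBMC viability and proliferation by Alamar Blue. Each well value was divided by the mean of 8 DMSO control wells on the same plate and log10 transformed; duplicate blinded samples were tested at 4 concentrations.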

[2] = compound: CNS(=O)(=O)C(F)(F)C(F)(F)C(F)(F)C(F)(F)C(F)(F)C(F)(F)C(F)(F)C(F)(F)F [N-Methylperfluorooctanesulfonamide]
Procedure: as §1

[3] = compound: Cn1cnc([N+](=O)[O-])c1Sc1ncnc2[nH]cnc12 [Azathioprine]
Procedure: as §1

[4] = compound: O=C(O)C(F)(F)C(F)(F)C(F)(F)C(=O)O [Hexafluoroglutaric acid]
Procedure: as §1

[5] = compound: O=C(O)C(F)(F)OC(F)(F)C(F)(F)OC(F)(F)C(F)(F)C(F)(F)C(F)(F)F [Perfluoro-3,6-dioxadecanoic acid]
Procedure: as §1

[6] = compound: O=C(O)CCC(F)(F)C(F)(F)C(F)(F)F [3:3 Fluorotelomer carboxylic acid]
Procedure: as §1

Test System	level (log10) ([1]; 6700 nM)	level (log10) ([1]; 20000 nM)	level (log10) ([2]; 6700 nM)	level (log10) ([2]; 20000 nM)	level (log10) ([2]; 60000 nM)	level (log10) ([3]; 1400 nM)	level (log10) ([3]; 4200 nM)	level (log10) ([3]; 13000 nM)	level (log10) ([3]; 38000 nM)	level (log10) ([4]; 6700 nM)	level (log10) ([4]; 20000 nM)	level (log10) ([4]; 60000 nM)	level (log10) ([5]; 6700 nM)	level (log10) ([5]; 20000 nM)	level (log10) ([5]; 60000 nM)	level (log10) ([6]; 6700 nM)	level (log10) ([6]; 20000 nM)	level (log10) ([6]; 60000 nM)
CASM3C:CD141/Thrombomodulin	0.002 ± 0.048	-0.0265 ± 0.035	0.0085 ± 0.019	-0.028 ± 0.057	-0.002 ± 0.044	-0.004 ± 0.011	-0.057 ± 0.035	-0.043 ± 0.025	-0.0405 ± 0.1	-0.008 ± 0.0099	-0.0175 ± 0.0021	0.043 ± 0.065	-0.022	-0.0225 ± 0.00071	0.0315 ± 0.046	-0.0065 ± 0.005	-0.0085 ± 0.011	-0.0185 ± 0.0035
CASM3C:CD142/Tissue Factor	0.002 ± 0.0057	-0.0195 ± 0.0021	-0.025 ± 0.037	-0.0115 ± 0.005	0.019 ± 0.011	-0.0115 ± 0.015	-0.026 ± 0.034	-0.0345 ± 0.021	-0.0295 ± 0.025	0.003 ± 0.033	0.0015 ± 0.005	0.0185 ± 0.021	0.001	-0.008 ± 0.0042	0.0105 ± 0.052	0.0015 ± 0.012	-0.0015 ± 0.013	-0.0305 ± 0.054
CASM3C:CXCL8/IL-8	-0.015 ± 0.018	-0.001 ± 0.016	-0.003 ± 0.017	0.012 ± 0.025	0.035 ± 0.021	-0.0095 ± 0.0064	-0.023 ± 0.0085	-0.023 ± 0.0057	-0.009 ± 0.024	-0.002 ± 0.017	-0.016 ± 0.014	0.0075 ± 0.0064	-0.0005 ± 0.013	-0.008	0.023 ± 0.028	-0.0025 ± 0.0021	-0.008 ± 0.0014	0.0085 ± 0.022
CASM3C:CXCL9/MIG	0.0005 ± 0.011	0.014 ± 0.014	-0.0675 ± 0.026	-0.086 ± 0.0085	-0.05 ± 0.045	0.012 ± 0.033	-0.0135 ± 0.005	0.008 ± 0.0057	0.0525 ± 0.042	-0.0195 ± 0.019	-0.02 ± 0.0085	0.022 ± 0.033	-0.006 ± 0.0085	-0.0045 ± 0.015	0.0155 ± 0.06	0.004 ± 0.0028	0.008 ± 0.0099	0.002
CASM3C:HLA-DR	-0.015 ± 0.017	-0.0125 ± 0.0021	-0.0525 ± 0.039	-0.0875 ± 0.011	-0.0315 ± 0.079	-0.0165 ± 0.0021	-0.0115 ± 0.026	-0.0405 ± 0.011	-0.055 ± 0.031	0.0165 ± 0.049	-0.015 ± 0.045	0.0055 ± 0.019	0.002 ± 0.03	0.0015 ± 0.011	0.0245 ± 0.026	0.007 ± 0.0085	0.006 ± 0.023	-0.009 ± 0.028
CASM3C:IL-6	-0.0235 ± 0.0092	0.015 ± 0.013	-0.0605 ± 0.036	-0.066 ± 0.02	-0.0025 ± 0.035	0.011 ± 0.051	-0.045 ± 0.0057	-0.051 ± 0.0085	-0.042 ± 0.072	-0.0175 ± 0.0035	-0.015 ± 0.021	0.022 ± 0.082	-0.0205 ± 0.005	-0.0205 ± 0.0021	-0.0085 ± 0.03	-0.029 ± 0.016	-0.0295 ± 0.015	0.0085 ± 0.018
CASM3C:LDLR	-0.0135 ± 0.0021	0.03 ± 0.024	0.002 ± 0.013	-0.0385 ± 0.059	0.0025 ± 0.0092	-0.0055 ± 0.018	-0.01 ± 0.0085	-0.024 ± 0.023	-0.034 ± 0.011	-0.009 ± 0.0099	-0.0175 ± 0.026	-0.015 ± 0.014	0.0015 ± 0.022	-0.016 ± 0.0028	-0.0065 ± 0.023	-0.0165 ± 0.00071	-0.0105 ± 0.0035	0.011 ± 0.027
CASM3C:M-CSF	-0.0155 ± 0.0092	0.0165 ± 0.03	0 ± 0.016	0.0105 ± 0.077	0.0575 ± 0.042	0.0065 ± 0.00071	-0.0255 ± 0.018	-0.0305 ± 0.0064	-0.007 ± 0.038	-0.0135 ± 0.022	-0.0185 ± 0.033	0.018 ± 0.018	-0.0055 ± 0.035	-0.024 ± 0.0057	0.0115 ± 0.073	-0.0055 ± 0.037	-0.02 ± 0.018	0.0185 ± 0.028
CASM3C:PAI-I	-0.005 ± 0.0014	-0.005 ± 0.0028	0.011 ± 0.0042	0.0075 ± 0.012	0.0085 ± 0.012	-0.0045 ± 0.0021	0.007 ± 0.0057	0.007 ± 0.0014	0.01 ± 0.0042	-0.0015 ± 0.015	-0.0005 ± 0.0064	0.0075 ± 0.0064	0.001 ± 0.0042	0.003 ± 0.0071	0.011 ± 0.011	-0.002 ± 0.0057	-0.0035 ± 0.00071	0.009 ± 0.0014
CASM3C:Proliferation	0.0065 ± 0.033	-0.022 ± 0.018	0.015 ± 0.031	-0.006 ± 0.035	-0.0605 ± 0.094	-0.0225 ± 0.037	-0.0225 ± 0.005	-0.0785 ± 0.012	-0.147 ± 0.028	-0.015 ± 0.083	-0.029 ± 0.0071	0.004 ± 0.0071	0.0135 ± 0.0035	-0.0165 ± 0.029	0.0015 ± 0.018	-0.01 ± 0.011	0.005 ± 0.0042	0.0005 ± 0.022
CASM3C:SRB	-0.0005 ± 0.00071	0 ± 0.0071	0.01 ± 0.0014	-0.0015 ± 0.0021	0.002 ± 0.0028	0.0015 ± 0.0092	0.003 ± 0.0057	-0.013 ± 0.0014	-0.0365 ± 0.0078	-0.001 ± 0.0028	-0.0035 ± 0.0021	0.0065 ± 0.005	0.003 ± 0.0071	-0.0025 ± 0.0092	-0.0005 ± 0.0092	0.005 ± 0.016	0.002 ± 0.014	-0.0055 ± 0.011
CASM3C:Serum Amyloid A	-0.014 ± 0.0028	-0.009 ± 0.0042	0.0135 ± 0.0078	0.0445 ± 0.0078	0.073 ± 0.041	0.033 ± 0.021	-0.0125 ± 0.0021	-0.031 ± 0.0085	-0.0485 ± 0.066	0.0395 ± 0.049	0.027 ± 0.018	0.0085 ± 0.019	0.012 ± 0.025	-0.004 ± 0.023	0.0405 ± 0.0021	-0.0055 ± 0.029	-0.004 ± 0.0042	-0.0005 ± 0.032
HDF3CGF:CCL2/MCP-1	-0.0205 ± 0.03	-0.007 ± 0.0042	0.034 ± 0.0085	0.0305 ± 0.0035	0.029 ± 0.014	-0.0095 ± 0.018	-0.005 ± 0.0057	-0.0255 ± 0.0035	-0.043 ± 0.024	-0.01 ± 0.0028	-0.0215 ± 0.012	-0.005 ± 0.0042	0.0135 ± 0.018	-0.017 ± 0.0071	-0.043 ± 0.0014	0.004 ± 0.013	0.0005 ± 0.0035	0.015 ± 0.041
HDF3CGF:CD54/ICAM-1	-0.008 ± 0.0085	-0.01 ± 0.014	-0.002 ± 0.0028	-0.0075 ± 0.019	-0.0845 ± 0.0035	-0.0065 ± 0.011	0.0045 ± 0.0078	0.0015 ± 0.019	-0.0195 ± 0.012	0.001 ± 0.018	0.0035 ± 0.013	0.004 ± 0.016	-0.0025 ± 0.021	-0.0125 ± 0.026	-0.038 ± 0.04	-0.0025 ± 0.0078	-0.0135 ± 0.015	-0.017 ± 0.0028
HDF3CGF:CD106/VCAM-1	-0.01 ± 0.037	-0.017 ± 0.11	-0.164 ± 0.017	-0.176 ± 0.029	-0.154 ± 0.0021	-0.0485 ± 0.1	-0.021 ± 0.03	-0.08 ± 0.042	-0.243 ± 0.0057	-0.045 ± 0.0071	-0.0195 ± 0.071	-0.05 ± 0.12	-0.0845 ± 0.0021	-0.15 ± 0.0057	-0.21 ± 0.013	-0.0055 ± 0.00071	0.02 ± 0.014	-0.009 ± 0.0085
HDF3CGF:CXCL8/IL-8	-0.0015 ± 0.016	0.0045 ± 0.00071	-0.0145 ± 0.0035	-0.0195 ± 0.00071	-0.0015 ± 0.0035	0.006 ± 0.014	-0.0155 ± 0.021	-0.009 ± 0.0028	0.0045 ± 0.029	-0.005 ± 0.013	-0.0005 ± 0.0064	-0.0015 ± 0.0035	-0.0065 ± 0.005	-0.001 ± 0.0028	0.001 ± 0.016	-0.006 ± 0.016	-0.002 ± 0.0099	-0.004 ± 0.017
